Results published in patent publication US8143025B2, “Antibodies against vascular endothelial growth factor receptor-1” (ImClone LLC, priority 2004, dated 2012).
Entries after “also recorded” stand apart in the source; their conditions may differ.

Tests used:
[1] = tested on: ERK1/2 downstream signaling; assay: ERK1/2 activation Western blot, PAE-VEGFR-I cells; format: cell-based; details: PAE-VEGFR-I transfectant cells, FIGS. 12-14
Experimental: Autophosphorylation of the VEGFR-I induced by its ligands and resulting activation of a classical MAPK, extracellular signal-regulated protein kinases 1Z2 (ERK1Z2) and the PBK/Atk downstrean signaling pathways mediate cellular biological responses such as proliferation, motility, survival, and differentiation. The ability of an anti-VEGFR-1 antibody to inhibit phosphorylation of VEGFR-I and activation of ERK1 Z2 and the Akt kinases downstream signaling were determined by using the PAE-VEGFR-I transfectant and BT474 breast carcinoma cells.
PAE-VEGFR-I and BT474 cells were seeded at a density of 5×10^5Zwell in […] plates and cultured in serum-free medium for 18-48 hours. After replacing the culture medium, the cells were treated at 37° C. with anti-VEGFR-I antibody clones 6F9, 15F1 1, and 18F1 or isotype control for 1 hour and then incubated with 50 ng/ml of VEGF or 100 ng/ml of PlGF for 10 minutes. […] Western blot of phosphorylated VEGFR-I was detected using […] antibody (PY-20, Santa Cruz Biotechnology, Santa Cruz, Calif.). Proteins were detected using and […] chemiluminescence system (ECL)(Amersham Pharmacia Biotech, Piscataway, N.J.), and quantified by densitometry using NIH Image (National Institute of Mental Health, Bethesda, Md.). […]

huVEGFR-2-AP = huVEGFR-2-AP (Homo sapiens, UniProt P35968); assay: Plate-bound receptor binding ELISA (Example 2B); details: FIG. 32C, 100 ng/well
Experimental: HuVEGFR-I-Fc, mouse VEGFR-I-AP (hnClone Systems) or huVEGFR-2-AP (ImClone Systems) (100 ng/well) was coated on 96 strip-well plates and blocked with 5% milk/PBS. The binding of 18F1 and other anti-human VEGFR-I antibodies or a rat anti-mouse VEGFR-I antibody, MF1 (ImClone Systems, ref. 18), to plate bound VEGFR-I or VEGFR-2 was evaluated as described for the hybridoma supernatant screening above, except that bound antibody was detected with a goat anti-human kappa-HRP antibody (Bio Source International, Camarillo, Calif.) for 18F1 and anti-human VEGFR-2 antibody ICl 1. or a goat anti-rat IgG-HRP antibody (BioSource International) for MF1.

MDA-MB-435 xenograft = assay: MDA-MB-435 breast tumor xenograft; format: in vivo, mouse
Experimental: Athymic nude mice (Charles River Laboratories, Wilmington, Mass.) were injected subcutaneously in the left flank area with 2×10^6 of DU4475 cells or 5×10^6 of MDA-MB-231 and MDA-MB-435 cells mixed in Matrigel (Collaborative Research Biochemicals. Bedford, Mass.). In the DU4475 and MDA-MB-231 models, tumors were allowed to reach approximately 200 mm^3 in size and then mice were randomized into groups of 12-16 animals per group. Animals received i.p. administration of the anti-VEGFR-I antibody clones 6F9, 15F11, or 18F1 at a dose of 0.5 mg (MDA-MB-231) or 1 mg (DU4475) three times each week. In the MDA-MB-435 model, the tumor cells were implanted subcutaneously into mammary fat pad area in the mouse. After tumors grew to reach approximately 200 mm^3 in size, mice were randomized into groups of 15 animals per group and intraperitoneally administered with 0.5 mg per dose of 18F1 antibody three times each week. Mice in control groups received an equal volume of saline solution. Treatment of animals was continued for the duration of the experiment. Tumors were measured twice each week with calipers. Tumor volumes were calculated using the formula [π/6 (w1×w2×w2)], where “w1” represents the largest tumor diameter and “w2” represents the smallest tumor diameter. […] Tumor growth was evaluated approximately twice weekly, with tumor volume calculated as π/6* (Length*Width^2), where Length=longest diameter and Width=diameter perpendicular to Length. Tumor dimensions were measured with calipers. T/C % was calculated as 100*(Final Treatment Tumor Volume/Initial Treatment Tumor Volume)/(Final Control Tumor Volume/Initial Control Tumor Volume). […] The effect of treatment on tumor growth was analyzed using repeated measures analysis of variance (RM ANOVA), p<0.05 was considered significant. […] AU treatments were administered i.p. The effect of treatments on tumor growth were analyzed using repeated measures analysis of variance (RM ANOVA), p<0.05 was considered significant.

huVEGFR-2-AP, sequence (P35968 20-764 limits assumed): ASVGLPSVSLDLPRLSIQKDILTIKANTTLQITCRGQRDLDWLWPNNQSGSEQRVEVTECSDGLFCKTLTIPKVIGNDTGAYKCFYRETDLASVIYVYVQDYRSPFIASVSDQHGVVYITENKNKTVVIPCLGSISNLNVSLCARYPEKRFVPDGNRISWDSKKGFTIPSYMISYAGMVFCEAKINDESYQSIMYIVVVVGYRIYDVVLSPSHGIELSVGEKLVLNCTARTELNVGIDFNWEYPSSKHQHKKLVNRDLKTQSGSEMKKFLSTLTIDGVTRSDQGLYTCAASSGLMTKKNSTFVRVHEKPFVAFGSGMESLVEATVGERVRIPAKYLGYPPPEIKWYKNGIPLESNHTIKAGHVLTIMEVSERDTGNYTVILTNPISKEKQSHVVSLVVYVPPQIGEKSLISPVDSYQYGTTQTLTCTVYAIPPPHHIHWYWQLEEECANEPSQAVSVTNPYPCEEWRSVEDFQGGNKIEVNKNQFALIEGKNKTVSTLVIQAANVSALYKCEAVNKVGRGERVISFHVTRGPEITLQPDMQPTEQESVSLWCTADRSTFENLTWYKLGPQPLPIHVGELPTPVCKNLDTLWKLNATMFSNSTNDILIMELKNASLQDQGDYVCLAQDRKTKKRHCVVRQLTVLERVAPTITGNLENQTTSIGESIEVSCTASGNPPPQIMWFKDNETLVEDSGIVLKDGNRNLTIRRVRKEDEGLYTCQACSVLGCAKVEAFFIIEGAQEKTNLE

- reactivity with human VEGFR-2 (huVEGFR-2-AP): no cross reactivity
Substance: 18F1: human anti-VEGFR-1 monoclonal antibody clone; VL SEQ ID NO: 16, VH SEQ ID NO: 20 [Clone 18F1]
- PlGF and VEGF induced activation of ERK1/2 downstream signaling [1]: dramatically inhibited; also recorded: inhibition
- tumor growth of the MDA-MB-435 xenograft (MDA-MB-435 xenograft; 0.5 or 1 mg per dose three times each week, ANOVA p<0.05, FIG. 20C): statistically significant suppression
- growth of MDA-MB-435 xenograft tumors (MDA-MB-435 xenograft; Example 9, intraperitoneal, p<0.05, FIG. 25B): significantly (p<0.05) suppressed
